Assay results reported in the supplement of paper PMC10307832.

Assays:
Experiment in all cases: relative viability (nuclei count vs DMSO), 5 days (fraction); higher = more cells survive
Bortezomib + Alpelisib = compound: CC(C)C[C@H](NC(=O)[C@H](Cc1ccccc1)NC(=O)c1cnccn1)B(O)O [Bortezomib] + Cc1nc(NC(=O)N2CCC[C@H]2C(N)=O)sc1-c1ccnc(C(C)(C)C(F)(F)F)c1 [Alpelisib] (partner 2 µM)
Outline: (§1)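 Cells from lung cancer lines were seeded into 1536-well plates and, one day later, dosed by pin tool. Treatments were either a single drug or a fixed dose of an anchor drug with five library-drug doses (not always all listed) in √10 steps. After 5 days, nuclei were stained in a one-step fixation (final 0.05% Triton X-100, 1% formaldehyde, 1 ug/ml Hoechst) and counted on 4× images, and relative viability is the treated-to-vehicle nuclei ratio, as the median of duplicate plates.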

[1] = compound: CC1=CC(=NN1)NC2=CC(=NC(=N2)/C=C/C3=CC=CC=C3)N4CCN(CC4)C + CC1(C)CCC(c2ccc(Cl)cc2)=C(CN2CCN(c3ccc(C(=O)NS(=O)(=O)c4ccc(N[C@H](CCN5CCOCC5)CSc5ccccc5)c(S(=O)(=O)C(F)(F)F)c4)cc3)CC2)C1 [Navitoclax] (partner 0.5 µM)
Outline: as §1

[2] = compound: CC1=CC(=NN1)NC2=CC(=NC(=N2)/C=C/C3=CC=CC=C3)N4CCN(CC4)C + C[C@]1(O)C[C@@H](c2nc(-c3ccc4ccc(-c5ccccc5)nc4c3)c3c(N)nccn32)C1 [Linsitinib] (partner 1 µM)
Outline: as §1

Obatoclax + Vorinostat = compound: COC1=CC(c2cc3ccccc3[nH]2)=N/C1=C\c1[nH]c(C)cc1C [Obatoclax] + O=C(CCCCCCC(=O)Nc1ccccc1)NO [Vorinostat] (partner 1 µM)
Outline: as §1

With 201T the relative viability (Bortezomib + Alpelisib; first compound 0.0002 µM) was 1.03, the relative viability (Bortezomib + Alpelisib; first compound 0.000632 µM) was 0.993 and the relative viability (Bortezomib + Alpelisib; first compound 0.002 µM) was 0.975. The relative viability (Bortezomib + Alpelisib; first compound 0.006325 µM) was 0.951, the relative viability (Bortezomib + Alpelisib; first compound 0.02 µM) was 0.31 and the relative viability ([1]; first compound 0.08 µM) was 1.2. It also gave a relative viability ([1]; first compound 0.253 µM) of 1.21, a relative viability ([1]; first compound 0.8 µM) of 1.19 and a relative viability ([1]; first compound 2.53 µM) of 1.13. For the same cell line, the relative viability ([1]; first compound 8 µM) was 1.12, the relative viability ([2]; first compound 0.08 µM) was 1.02 and the relative viability ([2]; first compound 0.253 µM) was 1.07. It also gave a relative viability ([2]; first compound 0.8 µM) of 1, a relative viability ([2]; first compound 2.53 µM) of 0.897 and a relative viability ([2]; first compound 8 µM) of 0.819. The relative viability (Obatoclax + Vorinostat; first compound 0.01 µM) was 0.954, the relative viability (Obatoclax + Vorinostat; first compound 0.03162 µM) was 0.834 and the relative viability (Obatoclax + Vorinostat; first compound 0.1 µM) was 0.968. The relative viability (Obatoclax + Vorinostat; first compound 0.3162 µM) was 0.959 and the relative viability (Obatoclax + Vorinostat; first compound 1 µM) was 1.06.

Work on A549 yielded a relative viability (Bortezomib + Alpelisib; first compound 0.0002 µM) of 0.769, a relative viability (Bortezomib + Alpelisib; first compound 0.000632 µM) of 0.706 and a relative viability (Bortezomib + Alpelisib; first compound 0.002 µM) of 0.756. For the same cell line, the relative viability (Bortezomib + Alpelisib; first compound 0.006325 µM) was 0.055, the relative viability (Bortezomib + Alpelisib; first compound 0.02 µM) was 0.0365 and the relative viability ([1]; first compound 0.08 µM) was 1.1. The relative viability ([1]; first compound 0.253 µM) was 1.19, the relative viability ([1]; first compound 0.8 µM) was 0.985 and the relative viability ([1]; first compound 2.53 µM) was 0.0304. The relative viability ([1]; first compound 8 µM) was 0.0283, the relative viability ([2]; first compound 0.08 µM) was 0.538 and the relative viability ([2]; first compound 0.253 µM) was 0.689. The relative viability ([2]; first compound 0.8 µM) was 0.481, the relative viability ([2]; first compound 2.53 µM) was 0.275 and the relative viability ([2]; first compound 8 µM) was 0.0279.

A-427 showed a relative viability (Bortezomib + Alpelisib; first compound 0.0002 µM) of 0.991, a relative viability (Bortezomib + Alpelisib; first compound 0.000632 µM) of 1.03 and a relative viability (Bortezomib + Alpelisib; first compound 0.002 µM) of 1.05. It also gave a relative viability (Bortezomib + Alpelisib; first compound 0.006325 µM) of 1.11, a relative viability (Bortezomib + Alpelisib; first compound 0.02 µM) of 0.0762 and a relative viability ([1]; first compound 0.08 µM) of 1.04. It also gave a relative viability ([1]; first compound 0.253 µM) of 1.02, a relative viability ([1]; first compound 0.8 µM) of 0.991 and a relative viability ([1]; first compound 2.53 µM) of 0.627. The relative viability ([1]; first compound 8 µM) was 0.164, the relative viability ([2]; first compound 0.08 µM) was 1.2 and the relative viability ([2]; first compound 0.253 µM) was 1.16. It also gave a relative viability ([2]; first compound 0.8 µM) of 1.09, a relative viability ([2]; first compound 2.53 µM) of 0.87 and a relative viability ([2]; first compound 8 µM) of 0.305. The relative viability (Obatoclax + Vorinostat; first compound 0.01 µM) was 0.839, the relative viability (Obatoclax + Vorinostat; first compound 0.03162 µM) was 0.836 and the relative viability (Obatoclax + Vorinostat; first compound 0.1 µM) was 0.741. The relative viability (Obatoclax + Vorinostat; first compound 0.3162 µM) was 0.835 and the relative viability (Obatoclax + Vorinostat; first compound 1 µM) was 0.664.

ABC-1 gave a relative viability (Bortezomib + Alpelisib; first compound 0.0002 µM) of 1, a relative viability (Bortezomib + Alpelisib; first compound 0.000632 µM) of 1.08 and a relative viability (Bortezomib + Alpelisib; first compound 0.002 µM) of 0.372. It also gave a relative viability (Bortezomib + Alpelisib; first compound 0.006325 µM) of 0.233, a relative viability (Bortezomib + Alpelisib; first compound 0.02 µM) of 0.245 and a relative viability ([2]; first compound 0.08 µM) of 0.787. For the same cell line, the relative viability ([2]; first compound 0.253 µM) was 0.983, the relative viability ([2]; first compound 0.8 µM) was 0.724 and the relative viability ([2]; first compound 2.53 µM) was 0.581. It also gave a relative viability ([2]; first compound 8 µM) of 0.173, a relative viability (Obatoclax + Vorinostat; first compound 0.01 µM) of 1.25 and a relative viability (Obatoclax + Vorinostat; first compound 0.03162 µM) of 1.08. It also gave a relative viability (Obatoclax + Vorinostat; first compound 0.1 µM) of 0.869, a relative viability (Obatoclax + Vorinostat; first compound 0.3162 µM) of 1.17 and a relative viability (Obatoclax + Vorinostat; first compound 1 µM) of 0.933.
